One assay deals with rat erythrocytes. The assay is described as follows: Spectral index of the labeled amyloid peptide on rat erythrocytes preincubated with unlabeled beta-amyloid peptide. Type of assay: cell-based. The conditions noted are these: rat erythrocytes incubated 2 hours at 37° C. with unlabeled peptide (10-1000 nmol·L^-1); FIG. 6. The procedure:
A sample of rat blood (1 to 3 ml) is collected in a heparinized tube. The sample is diluted with Krebs medium then centrifuged three times discarding the buffer layer (“buffy coat”). The erythrocytes obtained are next incubated at 37° C. for 2 hours in the presence of the unlabeled beta-amyloid peptide 1-42 or the corresponding unlabeled reverse peptide (42-1) at various concentrations (10-1000 nmol·L^−1). After an additional washing, the cells are placed in a spectro-fluorimeter and a fluorescence spectrum (excitation 480 nm; emission 495-600 nm) of the base line is recorded before the addition of the labeled amyloid peptide (250 nmol·L^−1). A second fluorescence spectrum is recorded after 10 minutes of incubation in the presence of the labeled amyloid peptide.
The base line spectrum is subtracted from the fluorescence spectrum of the labeled beta-amyloid peptide. The spectrum obtained is broken down into 4 component Gaussian curves by deconvolution and non-linear regression. The ratio of the amplitude of the Gaussian centered around 510 nm to the amplitude of the Gaussian centered around 530 nm is calculated. Its value varies as a function of the concentration of unlabeled beta-amyloid peptide 1-42 in the presence of which the cells were incubated as illustrated in FIG. 6.

Another assay deals with PC12 cells. Kind of assay: Spectral index of the labeled amyloid peptide on PC12 cells preincubated with unlabeled beta-amyloid peptide. Type of assay: cell-based, rat. The conditions noted are these: PC12 cells preincubated 12 hours with 100 or 250 nM unlabeled peptide, FIG. 5, 4 independent experiments in triplicate. On the procedure: PC12 cells (derived from male rat medullo-adrenal gland tumor) are inoculated into glass-bottomed Petri dishes previously treated with collagen and polyornithine. They are cultured for 7 days in an atmosphere containing 5% of CO2 at 37° C. in RPMI 1640 medium containing glutamine and supplemented with 10% of horse serum, 5% of fetal calf serum, 50 U/mL of penicillin and 50 μg/mL of streptomycin. To induce the differentiation of the cells, 50 ng/mL of murine neurotrophic growth factor (NGF) 2.5S are added to the medium 24 hours after the inoculation.
The day before the measurement, unlabeled beta-amyloid peptide 1-42 of SEQ. ID. No.: 1 or the corresponding unlabeled reverse peptide (42-1) of SEQ ID No.: 2 is added at different concentrations lying between 10 and 1000 nmol·L^−1.
The following day, this preparation is washed 3 times with Krebs medium at ambient temperature and placed on an inverted microscope coupled with a spectro-fluorimeter. A fluorescence spectrum (excitation 480 nm; emission 495-600 nm) of the base line is recorded before the addition of the labeled amyloid peptide (250 nmol·L^−1). A second fluorescence spectrum is recorded after 10 minutes of incubation.
The base line spectrum is subtracted from the fluorescence spectrum of the labeled amyloid peptide. […] The ratio of the amplitude (measured graphically or else with the deconvolution software) of the Gaussian curves centered respectively at 525 nm and 540 nm defines a spectral index describing the distribution of the spectrum
The PC12 cells are preincubated for 12 hours in the presence of unlabeled beta-amyloid peptide 1-42 or 42-1 then rinsed before being placed under a microscope coupled to a spectrofluorimeter. A first spectrum (base line) is recorded.
Next, the labeled beta-amyloid peptide is added. A spectrum is recorded 10 minutes after the addition of the fluorescent compound.
The spectral index is the ratio between the amplitude of the first and that of the second Gaussian calculated by deconvolution (see FIG. 4).

Take “beta-amyloid peptide 1-42: unlabeled human beta-amyloid peptide 1-42 of SEQ ID No.: 1”: the “value of the spectral index (ratio of Gaussian amplitudes around 510 nm and 530 nm) of the labeled amyloid peptide after preincubation with unlabeled peptide” value with rat erythrocytes is recorded as “increases as a function of the concentration”. Moreover, in the assay on PC12 cells, the “change in the value of the spectral index of the labeled amyloid peptide induced by preincubation with unlabeled peptide” value is on record as “increases with the increase in concentration of peptide preincubated”.

For “beta-amyloid peptide 42-1: corresponding unlabeled reverse peptide (42-1) of SEQ ID No.: 2, inactive (AIVVGGVMLGIIAGKNSGVDEAFFVLKQHHVEYGSDHRFEAD; listed as Homo sapiens)”, the results for the “change in the value of the spectral index of the labeled amyloid peptide induced by preincubation with unlabeled peptide” value with PC12 cells and with PC12 cells (listed as β-amyloid peptide 42-1) were “no significant effect” and “absence of change”, respectively.

(Values after patent US8993781B2, “Fluorescent boron-substituted dipyrromethenes and use thereof for diagnosis” (Centre National de la Recherche Scientifique, priority 2008, dated 2015).)
